# Test: Compatibility of CBD / CBD-containing SNEDDS with excipients (CBD release in SGF, SIF, FaSSIF)
# Format: physicochemical
# Protocol: A number of different compositions were prepared and tested in order to determine the compatibility of CBD and/or CBD-containing self-nanoemulsifying drug delivery systems (SNEDDS) with various excipients.
row,SMILES,compatibility with CBD/CBD-containing SNEDDS
1,O=C([O-])CN(CCN(CC(=O)[O-])CC(=O)O)CC(=O)O.[Na+].[Na+] [EDTA sodium],no signs of incompatibility
2,NCC(=O)O [Glycine],no signs of incompatibility
3,"CCCCCCCCCCCCOS(=O)(=O)[O-].[Na+] [Sodium lauryl sulfate (SLS), Sodium lauryl sulfate]",no signs of incompatibility
